Tests used:
[1] = test system: TNF-α; test: TNF-α production by activated monocytes (SAC + IFN-γ); format: cell-based, human; conditions: SAC+IFN-γ alone 1840-2000 pg/ml
[2] = test system: IL-12; test: IL-12 production by THP-1 cells stimulated with IFNγ and SAC; format: cell-based, human; conditions: retinoid antagonist (1 µg) added at time 0 together with IFNγ, IFNγ+SAC alone 275
Description: THP-1 cells were obtained from American Tissue Culture Collection and cultured in complete medium. To assay for IL-12 production, THP-1 cells, 1.25 x 10^6 cells/ml, were stimulated with S. aureus Cowan strain (SAC) (1/1000) and human recombinant interferon-γ (huIFN-γ (1000 U/ml) [Ma et al., J. Exp. Med. 183, 147-157 (1996)]. Alternatively, 0.5 x 10^6 human peripheral blood mononuclear cells (PBMC) (1 ml culture in 48 well plates) were primed with huIFN-γ (1000 U/ml) for 16 hours at 37°C, and then stimulated with SAC (1/1000). Supernatants were collected after 48 hours and freezed at -20 °C until assayed [Panina-Bordignon et al., J. Clin. Invest. 100, 1513-1519 (1997)].
IL-12 production was measured by specific enzyme linked immuno sorbant assay (ELISA), using 20C2 antibody (rat anti human IL-12 heterodimer p40-p35), at 2.5 µg/ml in coating buffer, and peroxidase-conjugated 4D6 antibody (rat anti human IL-12) at 250 ng/ml in assay buffer as described [Zhang et al., J. Clin. Invest. 93, 1733-1739 (1994)]. Standard (recombinant human IL-12, 800 pg/ml to 6 pg/ml) and samples (100 µl) diluted in assay buffer were added to duplicate wells. Absorbance was read at 450-650 nm. The unknown IL-12 concentrations of the samples were read from the corresponding standard curve and multiplied by the corresponding dilution factor. Maximal IL-12 production varied between 200 and 400 pg/ml.
Lyophilized retinoid antagonists were diluted in DMSO under yellow light, on ice at a concentration of 2 mM. Serial dilutions (1 µM-1 pM) were prepared in complete RPMI medium. 10 µl of each dilution was added to 1 ml culture.

[3] = test system: IL-10; test: IL-10 production by activated monocytes (SAC + IFN-γ); format: cell-based, human; conditions: SAC+IFN-γ alone 1040 pg/ml
[4] = test system: human naive T cells; test: Inhibition of differentiation of human naive T cells into T helper 2 (Th2) cells; format: cell-based; design: dose or concentration left out as unconfirmed; conditions: for IL-4 expressing cells, % gated cells: Th2 control 26.32; for IL-4 expressing cells, % Th2 cells: Th2 control = 100
Description: In vitro assay for inhibition of differentiation of human naive T cells into T helper 2 (Th2) cells by retinoid antagonists.
Naive T cells from cord blood were isolated and treated as described [Panina-Bordignon et al. J. Clin. Invest. 100. 1513-1519 (1997)]. Briefly, cord blood derived mononuclear cells were incubated with anti-CD45RA and anti-CD4 monoclonal antibodies. After a 20 minute incubation, cells were washed and incubated with goat antimouse Ig-coated magnetic beads. Positive cells were separated and seeded at 1 x 10^6 cells/ml in a 24 well plate, together with autologous adherent cells, PHA, and IL-4 in the presence or absence of Compound H or Compound B […] for 5 days. Cells were then washed and put back in culture in the presence of IL-2 (100 U/ml). After 10 days, the cells were collected and restimulated with PMA (50 ng/ml) and ionomycin (1 µg/ml) for 4 hours. Brefeldin A (10 µg/ml) was added for the last 2 hours. Then the cells were fixed with 4% paraformaldehyde and permeabilized with saponin. Fixed cells were stained with FITC-anti IFNγ and PE-anti-IL-4mAbs and subjected to cytofluorimetric analysis.

[5] = test system: neonatal mouse calvaria; test: Bone resorption assay, calcium release from neonatal mouse calvaria in tissue culture; format: cell-based, Swiss albino mice; conditions: for bone resorption induced by six different agents: inducers: calcitriol, all-trans RA, 9-cis RA, PGE2, TNFα, IL-1α (tables 6 to 11)
Description: A series of agents are known to induce or stimulate bone resorption. In this assay retinoid antagonists were tested for their capacity to inhibit or counteract the bone resorptive activity of bone resorption inducers.
Bone resorption was determined by quantification of calcium release from neonatal mouse calvaria (skull bones) in a tissue culture system, into supernatant medium. Calvaria were prepared from 4 days old mice (body weight 4-4.5 g) of time controlled mated Swiss albino mice. Frontal and parietal calvarial parts were dissected under a stereo-microscope and halved along the median suture. Half calvaria from all animals were randomly distributed to 6-well culture dishes (NUNC), containing stainless steel grids to support the bones at the interface of gas and medium. The tissue is incubated in BGJ medium (Bioconcept, Switzerland) according to a specified formulation supplemented with 1 mg/ml BSA (bovine serum albumin, SIGMA). Calvaria were cultured at 37°C in humidified atmosphere of 5% CO2 and 95% air. After 24 hours of preincubation, they were transferred to new dishes containing 1.7 ml fresh medium and test substances. Bone resorption inducers and retinoid antagonists were tested either as single agents or in combination. The cultures were then run for 72 hours. Calcium concentrations in culture supernatants were measured immediately after each incubation period. Stable, free calcium was determined in 25 µl samples with a spectrophotometric method using a methylthymol blue containing kit (Biomérieux), (E.M. Gindler and J.D. King, Am. J. Clin. Pathol. 1972, 58, 376-382). The resorptive response was expressed as µg calcium released per half calvarium during 3 days treatment.
Additional tests were done to examine calcium remaining in the calvaria. Calcium was extracted with 5% trichloroacetic acid (TCA) and determined in 50 µl samples after neutralization with NaOH. Furthermore, bone tissue viability was determined to exclude cytotoxicity. This was quantified by the colorimetric MTT tetrazolium test (T. Mosmann, J. Immunol. Methods 1983, 65, 55-63).
Bone resorption induced by the various agents was determined by measuring the amount of calcium released from half calvaria into the supernatant medium. Calcium release is indicated in µg per half calvarium in 1.7 ml medium. Calcium release from calvaria into medium as well as uptake of calcium from medium into calvaria can be measured. Efficacy of retinoid antagonists to inhibit the activity of bone resorption inducers is expressed as % inhibition. It is calculated from the difference between the amount of released calcium by bone resorption inducers alone and the amount of released calcium by their combination with retinoid antagonists. Retinoid antagonists alone induce neither calcium release nor uptake. Basal resorption rate in vehicle controls was 5 or less than 5%.

[6] = 9-cis RA 0.1 μM + retinoid antagonist 1 μM
[7] = 9-cis RA 0.1 μM + retinoid antagonist 10 μM
[8] = 9-cis RA 1 μM + retinoid antagonist 10 μM
[9] = Calcitriol 0.3 nM + retinoid antagonist 1 µM
[10] = Calcitriol 1 nM + retinoid antagonist 1 µM
[11] = Calcitriol 3 nM + retinoid antagonist 1 µM
[12] = all-trans RA 0.1 μM + retinoid antagonist 1 μM
[13] = all-trans RA 0.1 μM + retinoid antagonist 10 μM
[14] = all-trans RA 1 μM + retinoid antagonist 10 μM

| Compound | TNF-α ([1]; antagonist 10 nM) | TNF-α ([1]; antagonist 100 nM) | TNF-α ([1]; antagonist 1000 nM) | THP-1 IL-12 [2] | IL-10 ([3]; antagonist 10 nM) | IL-10 ([3]; antagonist 100 nM) | IL-10 ([3]; antagonist 1000 nM) | IL-4 expressing cells, % gated cells [4] | IL-4 expressing cells, % Th2 cells [4] | Calcium release per half calvarium [5, 6] | Inhibition of bone resorption by retinoid antagonists [5, 6] | Calcium release per half calvarium [5, 7] | Inhibition of bone resorption by retinoid antagonists [5, 7] | Calcium release per half calvarium [5, 8] | Inhibition of bone resorption by retinoid antagonists [5, 8] | Calcium release per half calvarium [5, 9] | Inhibition of bone resorption by retinoid antagonists [5, 9] | Calcium release per half calvarium [5, 10] | Inhibition of bone resorption by retinoid antagonists [5, 10] | Calcium release per half calvarium [5, 11] | also measured |
| --- | --- | --- | --- | --- | --- | --- | --- | --- | --- | --- | --- | --- | --- | --- | --- | --- | --- | --- | --- | --- | --- |
| CCCCCCCOc1cc2c(cc1/C(C)=C/c1ccc(C(=O)O)cc1)C(C)(C)CCS2(=O)=O [Compound H, p-[(E)-2-[3',4'-Dihydro-4',4'-dimethyl-7'-(beptyloxy)-2'H-1-benzothiopyran-6'-yl]propenyl]benzoic acid 1',1'-dioxide] | 1392 pg/mL | 1600 pg/mL | 1912 pg/mL | 306 pg/mL | 1060 pg/mL | 1050 pg/mL | 1343 pg/mL | 10.8% | 41% | 4 ± 5 µg | 82% | -5 ± 3 µg | 123% | 28 ± 7 µg | 30% | 0 ± 3 µg | 100% | 4 ± 3 µg | 55.6% | 11 ± 6 µg | Inhibition of bone resorption by retinoid antagonists [5, 11]: 15.4%; Calcium release per half calvarium [5, 12]: 2 ± 11 µg; Inhibition of bone resorption by retinoid antagonist [5, 12]: 89.5%; Calcium release per half calvarium [5, 13]: -5 ± 4 µg; Inhibition of bone resorption by retinoid antagonist [5, 13]: 126.3%; Calcium release per half calvarium [5, 14]: -2 ± 3 µg; Inhibition of bone resorption by retinoid antagonist [5, 14]: 108.7%; bone resorption induced by six different agents [5]: counteract bone resorption |
| CCCCOc1c(\C(C)=C/C=C/C(C)=C/C(=O)O)cc(C(C)(C)C)cc1C(C)(C)C [Compound B, (2E,4E,6Z)-7-(3,5-di-tert.butyl-2-butyloxyphenyl]-3-methyl-2,4,6-octatrienoic acid] | 1484 pg/mL | 1812 pg/mL | 1560 pg/mL | 577 pg/mL | 1020 pg/mL | 1521 pg/mL | 1700 pg/mL | 8.5% | 32% | 2 ± 5 µg | 33.3% | -4 ± 3 µg | 123.5% | -6 ± 2 µg | 133.3% | -1 ± 2 µg | 125% | 5 ± 3 µg | 44.4% | 4 ± 4 µg | Inhibition of bone resorption by retinoid antagonists [5, 11]: 69.2%; Calcium release per half calvarium [5, 12]: 5 ± 4 µg; Inhibition of bone resorption by retinoid antagonist [5, 12]: 61.5%; Calcium release per half calvarium [5, 13]: -3 ± 4 µg; Inhibition of bone resorption by retinoid antagonist [5, 13]: 123.1%; Calcium release per half calvarium [5, 14]: 10 ± 7 µg; Inhibition of bone resorption by retinoid antagonist [5, 14]: 41.2%; bone resorption induced by six different agents [5]: counteract bone resorption |

— patent EP1161410B1, “RETINOID ANTAGONISTS AND USE THEREOF” (Basilea Pharmaceutica AG, priority 1999, dated 2000)
